The record followed here is US8648099B2 (Hoffmann-La Roche Inc., priority 2011, dated 2014).

Where two headings read alike, the source gives them in different places.

One experiment concerns the target T1, human CB1 receptor (Homo sapiens, UniProt P21554).
T1 construct: expressed in transfected cells; host or cells: human embryonic kidney (HEK) cells, Semliki Forest Virus system, membrane preparations
The experiment in a line: CB1 receptor affinity ([3H]-CP-55,940 displacement, HEK cell membranes). It is filed as binding. The note with it: read-out: CB1 receptor affinity [% inhibition @ 10 μM]. As for the experimental part:
(§1) The affinity of the compounds of the invention for cannabinoid receptors was determined using membrane preparations of human embryonic kidney (HEK) cells in which the human CB1 receptor is transiently transfected using a Semliki Forest Virus system in conjunction with [3H]-CP-55,940 as radioligand. After incubation of freshly prepared cell membrane preparation with the [^3H]-ligand, with or without addition of compounds of the invention, separation of bound and free ligand was performed by filtration over glass fiber filters. Radioactivity on the filter was measured by scintillation counting.
(§2) The ability of the compounds to displace the radioligand [^3H]-CP-55,940 was measured at a concentration of 10 μM and values provided as [% inhibition @ 10 μM] both for the CB1 and CB2 receptor assay, The lower % inhibition is, the lower the likelihood of side effects based on CB1 or CB2 receptor inhibition is.

A further experiment has as its target T2, human CB2 receptor (Homo sapiens, UniProt P34972).
T2 construct: expressed in transfected cells; host or cells: human embryonic kidney (HEK) cells, Semliki Forest Virus system, membrane preparations
The experiment in a line: CB2 receptor affinity ([3H]-CP-55,940 displacement, HEK cell membranes). It is filed as binding. The note with it: displacement of [3H]-CP-55,940 at 10 μM. How it is done: as §1, with “cannabinoid CB2” for “cannabinoid”, “CB2” for “CB1”, “[^3H]-CP-55,940” for “[3H]-CP-55,940”
as §2

For the next experiment, the system named is ABCA1 protein. The experiment in a line: Detection of upregulation of ABCA1 protein in cells (ApoA-I binding, high content imaging). It is filed as cell-based. The note with it: THP-1 macrophage cells; for EC50: 24 hrs compound incubation, read-out: EC50 [μM] ABCA1 protein increasing efficacy; for % increase of ABCA1 at 3 μM: compound at 3 μM, 24 hrs. How it is done: The ability of compounds of the invention to increase the level of ABCA1 protein is determined in replicate cultures of THP-1 macrophage cells in 96-well microplates. Cells are plated at an initial density of 100,000 cells/well in 100 μl medium and differentiated to adherent macrophages with the addition of PMA (100 nM) for 68 hrs in 10% fetal bovine serum, 3 μl/L of b-mercaptoethanol, RPMI-1640 medium. Then, cells are incubated with RPMI-1640 medium containing 1% FCS, 25 μg/ml acetylated LDL, for 24 hours at 37° C. Following incubation with acetylated LDL, cells are washed twice with 50 μl PBS and incubated with 100 μl of RPMI-1640 medium containing the compound of interest solubilized in DMSO for an additional 24 hrs. The final DMSO concentration in presence of cells is maintained at 0.5%. ApoA-I binding assay using High Content Image Analysis is initiated by replacing with fresh medium, RPMI without Phenol Red, 0.2% BSA containing AlexaFluor®647 labeled ApoA-I for 2 h/37° C./5% CO2. Then, cells are fixed with 4% Formaldehyde in PBS (15 min, RT). Following Nuclei are stained with Hoechst solution (3 μM PBS) and Cytoplasm with Cell Mask Blue (2 μg/ml PBS), 15 min, RT. Finally the stained cells are fixed with a second round of formaldehyde treatment. Fixed stained cells are washed and kept in PBS at 4° C. and can be read immediately until one month after preparation.
The Alexa Fluor 647-labeled Apolipoprotein A-I (20 nM) was prepared as follows: Human recombinant Apolipoprotein A-I (ApoA-I) was exchanged to a buffer of 0.02 M NaHCO3 at pH 8.2 on an NAP desalting column (GE Healthcare) and brought to a concentration to 40 μM (1.13 mg/ml) by adjustment with the same buffer. The ApoA-I was fluorescently labeled by incubation with Alexa Fluor carboxylic acid succimidyl ester (Alexa Fluor 647, Invitrogen A-20006) at a 2:1 molar ratio (Alexa to ApoA-I) for 1 h under shaking at RT. The remaining unconjugated label was removed by buffer exchange to 0.02M NaHCO3 at pH 8.2.
Imaging and data collection were performed on an OPERA confocal microplate imaging reader using a 20× water immersion objective and UV360 or 405 laser to identify the cell nuclei and a 635 laser to identify the fluorescent ApoA-I. Eight fields of view are captured per well. Image capture and analysis was performed with the Acapella software. Background fluorescence detected in control wells without ApoA-I was subtracted.
Using XLfit3 program (ID Business Solutions Ltd. UK), the model 205 for Dose Response One Site is used to calculate the EC50 values. […] More particularly, the compounds of the present invention have EC50 values in a range of 0.1 μM to 3 μm.

[1] abbreviates: displacement of [3H]-CP-55,940 at 10 μM.

T2 sequence (P34972 whole entry): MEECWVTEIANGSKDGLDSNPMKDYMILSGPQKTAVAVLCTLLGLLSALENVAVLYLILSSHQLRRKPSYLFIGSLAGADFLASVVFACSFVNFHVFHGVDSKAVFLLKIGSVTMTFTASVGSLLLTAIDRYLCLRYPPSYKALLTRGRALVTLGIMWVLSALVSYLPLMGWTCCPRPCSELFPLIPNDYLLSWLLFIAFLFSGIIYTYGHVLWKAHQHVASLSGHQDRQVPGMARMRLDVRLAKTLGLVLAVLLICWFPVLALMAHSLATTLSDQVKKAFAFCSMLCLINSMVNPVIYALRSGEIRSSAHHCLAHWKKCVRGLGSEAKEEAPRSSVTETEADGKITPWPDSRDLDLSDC
T1 sequence (P21554 whole entry): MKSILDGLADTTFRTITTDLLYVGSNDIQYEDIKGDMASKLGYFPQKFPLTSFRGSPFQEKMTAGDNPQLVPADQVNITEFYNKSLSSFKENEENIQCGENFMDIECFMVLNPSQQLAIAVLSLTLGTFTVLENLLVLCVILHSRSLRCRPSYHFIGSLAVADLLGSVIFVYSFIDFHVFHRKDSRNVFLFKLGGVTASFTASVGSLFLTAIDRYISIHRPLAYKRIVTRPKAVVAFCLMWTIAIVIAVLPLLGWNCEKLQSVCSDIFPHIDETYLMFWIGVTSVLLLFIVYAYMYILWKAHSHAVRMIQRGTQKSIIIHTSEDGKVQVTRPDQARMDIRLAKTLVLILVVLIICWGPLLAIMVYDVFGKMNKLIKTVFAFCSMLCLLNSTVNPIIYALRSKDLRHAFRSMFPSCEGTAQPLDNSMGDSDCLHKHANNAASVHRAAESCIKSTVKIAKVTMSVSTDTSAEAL

Turning to `N#Cc1ccc(-c2cc(C(=O)NN3CCC(CCO)CC3)cnc2OCC(F)(F)F)cc1` [Example 38, 5-(4-cyano-phenyl)-N-[4-(2-hydroxy-ethyl)-piperidin-1-yl]-6-(2,2,2-trifluoro-ethoxy)-nicotinamide], the inhibition at 10 µM was 37% on human CB1 receptor (setting [1]) and -6% on human CB2 receptor. In the experiment on ABCA1 protein, the EC50 was 0.15 µM.

In the case of `CC(C)(C)OC(=O)N1CCC(c2cc(C(=O)NN3CCC(CCO)CC3)cnc2OCC(F)(F)F)CC1` [Example 39, 5-[4-(2-hydroxy-ethyl)-piperidin-1-ylcarbamoyl]-2-(2,2,2-trifluoro-ethoxy)-3′,4′,5′,6′-tetrahydro-2′H-[3,4′]bipyridinyl-1′-carboxylic acid tert-butyl ester], the inhibition at 10 µM at human CB1 receptor (setting [1]) is -3%; at human CB2 receptor, -5%. Besides, the concentration giving a half-maximal response (EC50) in the experiment on ABCA1 protein was 1.8 µM.

As for `CN(NC(=O)c1cnc(OCC(F)(F)F)c(C2CCN(C(=O)OC(C)(C)C)CC2)c1)c1ccc(F)cc1` [Example 40, 5-[N′-(4-fluoro-phenyl)-N′-methyl-hydrazinocarbonyl]-2-(2,2,2-trifluoro-ethoxy)-3′,4′,5′,6′-tetrahydro-2′H-[3,4′]bipyridinyl-1′-carboxylic acid tert-butyl ester], the figures for the inhibition at 10 µM on human CB1 receptor (setting [1]) and on human CB2 receptor were 50% and 3%, respectively. For the same compound, the EC50 in the experiment with ABCA1 protein was 0.68 µM.

Regarding `CN(NC(=O)c1cnc(OCC2CC2)c(C2CC2)c1)c1ccc(F)cc1` [Example 41, 5-cyclopropyl-6-cyclopropylmethoxy-nicotinic acid N′-(4-fluoro-phenyl)-N′-methyl-hydrazide], the inhibition at 10 µM on human CB1 receptor (setting [1]) was found to be 29%; on human CB2 receptor, 38%. The EC50 with ABCA1 protein came to 1.1 µM.

As for `O=C(NNc1ccc(F)cc1)c1cnc(OCC2CC2)c(C2CC2)c1` [Example 42], the inhibition at 10 µM on human CB1 receptor (setting [1]) is 11%; on human CB2 receptor, 9%. The EC50 in the experiment on ABCA1 protein was 3.2 µM.

In the case of `CN(NC(=O)c1cnc(OCC2CC2)c(C2CC2)c1)c1ccccc1` [Example 43, 5-cyclopropyl-6-cyclopropylmethoxy-nicotinic acid N′-methyl-N′-phenyl-hydrazide], the inhibition at 10 µM at human CB1 receptor (setting [1]) came to 28%; at human CB2 receptor it was 39%. For the same compound, in the experiment on ABCA1 protein, the concentration for a half-maximal effect (EC50) worked out at 1.04 µM.

In the case of `C[C@@H]1CN(NC(=O)c2cnc(OCC(F)(F)F)c(C3CC3)c2)C[C@H](C)O1` [Example 44, 5-cyclopropyl-N-((2R,6S)-2,6-dimethyl-morpholin-4-yl)-6-(2,2,2-trifluoro-ethoxy)-nicotinamide], the inhibition at 10 µM at human CB1 receptor (setting [1]) stood at 14%; on human CB2 receptor, 5%. In the experiment on ABCA1 protein, the “% increase of ABCA1 at 3 μM” value was over 45%@ 3 μM.

As for `C[C@@H]1CN(NC(=O)c2cnc(OCC3CC3)c(C3CC3)c2)C[C@H](C)O1` [Example 45, 5-cyclopropyl-6-cyclopropylmethoxy-N-((2R,6S)-2,6-dimethyl-morpholin-4-yl)-nicotinamide], the results for the inhibition at 10 µM on human CB1 receptor (setting [1]) and on human CB2 receptor were 19% and 17%, respectively. Further, the EC50 in the experiment with ABCA1 protein was 9.4 µM.

With `O=C(NNCc1ccncc1)c1cnc(OCC(F)(F)F)c(C2CC2)c1` [Example 46, 5-cyclopropyl-6-(2,2,2-trifluoro-ethoxy)-nicotinic acid N′-pyridin-4-ylmethyl-hydrazide], the inhibition at 10 µM at human CB1 receptor (setting [1]) and at human CB2 receptor was 11% each time. The “% increase of ABCA1 at 3 μM” value in the experiment with ABCA1 protein was over 45%@ 3 μM.

Regarding `CN(NC(=O)c1cnc(OC2CCC2)c(C2CC2)c1)c1ccc(F)cc1` [Example 47, 6-cyclobutoxy-5-cyclopropyl-nicotinic acid N′-(4-fluoro-phenyl)-N′-methyl-hydrazide], the inhibition at 10 µM on human CB1 receptor (setting [1]) was 25%; at human CB2 receptor, 7%. The “% increase of ABCA1 at 3 μM” value with ABCA1 protein is over 45%@ 3 μM.

For the compound `O=C(NNc1ccc(F)cc1)c1cnc(OC2CCC2)c(-c2ccco2)c1` [Example 48, 6-cyclobutoxy-5-furan-2-yl-nicotinic acid N′-(4-fluoro-phenyl)-hydrazide], the inhibition at 10 µM at human CB1 receptor (setting [1]) is 43%; on human CB2 receptor it was -2%. Moreover, the 50% effective concentration (EC50) in the experiment with ABCA1 protein is 0.8 µM.

Turning to `CN(NC(=O)c1cnc(OCC(F)(F)F)c(C2CC2)c1)c1ccncc1` [Example 49, 5-cyclopropyl-6-(2,2,2-trifluoro-ethoxy)-nicotinic acid N′-methyl-N′-pyridin-4-yl-hydrazide], the inhibition at 10 µM stood at 13% at human CB1 receptor (setting [1]) and 3% on human CB2 receptor. In addition, in the experiment with ABCA1 protein, the “% increase of ABCA1 at 3 μM” value is over 45%@ 3 μM.

Take `O=C(NN1CCC(O)CC1)c1cnc(OC2CCC2)c(-c2ccco2)c1` [Example 50, 6-cyclobutoxy-5-furan-2-yl-N-(4-hydroxy-piperidin-1-yl)-nicotinamide]: the inhibition at 10 µM at human CB1 receptor (setting [1]) stood at 15%; on human CB2 receptor, 6%. Besides, in the experiment on ABCA1 protein, the EC50 was found to be 0.16 µM.

With `CN(NC(=O)c1cnc(OC2CCC2)c(-c2ccco2)c1)c1ccc(Cl)nn1` [Example 51, 6-cyclobutoxy-5-furan-2-yl-nicotinic acid N′-(6-chloro-pyridazin-3-yl)-N′-methyl-hydrazide], the figures for the inhibition at 10 µM at human CB1 receptor and on human CB2 receptor were 30% and -4%, respectively. In addition, the EC50 in the experiment on ABCA1 protein was 0.47 µM.

As for `CN(NC(=O)c1cnc(OC2CCC2)c(-c2ccco2)c1)c1ccncc1` [Example 52, 6-cyclobutoxy-5-furan-2-yl-nicotinic acid N′-methyl-N′-pyridin-4-yl-hydrazide], the figures for the inhibition at 10 µM at human CB1 receptor (setting [1]) and on human CB2 receptor were 31% and 19%, respectively. In addition, in the experiment on ABCA1 protein, the EC50 is 5.8 µM.

As to `CN(NC(=O)c1cnc(OCC2CC2)c(C2CC2)c1)c1ccc(C#N)cc1` [Example 53, 5-cyclopropyl-6-cyclopropylmethoxy-nicotinic acid N′-(4-cyano-phenyl)-N′-methyl-hydrazide], the inhibition at 10 µM amounted to 47% at human CB1 receptor (setting [1]) and 48% on human CB2 receptor. Also, in the experiment on ABCA1 protein, the “% increase of ABCA1 at 3 μM” value is on record as over 45%@ 3 μM.

For the compound `CN(NC(=O)c1cnc(OCC(F)(F)F)c(C2CC2)c1)c1ccc(C#N)cc1` [Example 54, 5-cyclopropyl-6-(2,2,2-trifluoro-ethoxy)-nicotinic acid N′-(4-cyano-phenyl)-N′-methyl-hydrazide], the figures for the inhibition at 10 µM at human CB1 receptor (setting [1]) and on human CB2 receptor were 36% and 17%, respectively. Besides, the “% increase of ABCA1 at 3 μM” value with ABCA1 protein is on record as over 45%@ 3 μM.

As to `CN(NC(=O)c1cnc(OC2CCC2)c(C2CC2)c1)c1ccc(C#N)cc1` [Example 55, 6-cyclobutoxy-5-cyclopropyl-nicotinic acid N′-(4-cyano-phenyl)-N′-methyl-hydrazide], the inhibition at 10 µM on human CB1 receptor (setting [1]) was 27%; at human CB2 receptor, 18%. Besides, the “% increase of ABCA1 at 3 μM” value in the experiment with ABCA1 protein is recorded as over 45%@ 3 μM.

Turning to `CN(NC(=O)c1cnc(OCC(F)(F)F)c(-c2cccc(F)c2)c1)c1ccccc1` [Example 56, 5-(3-fluoro-phenyl)-6-(2,2,2-trifluoro-ethoxy)-nicotinic acid N′-methyl-N′-phenyl-hydrazide], the inhibition at 10 µM turned out to be 28% on human CB1 receptor (setting [1]) and 16% at human CB2 receptor. Also, in the experiment with ABCA1 protein, the “% increase of ABCA1 at 3 μM” value is over 45%@ 3 μM.
